Experimental data: patent US20250326839A1, “TREATMENT OF DISEASES RELATED TO COLONY-STIMULATING FACTOR 1 RECEPTOR DYSFUNCTION USING TREM2 AGONISTS” (Vigil Neuroscience, Inc., priority 2020, published 2025)

Test system: human monocyte-derived macrophages (hMDMs)
Assay: Example 2E: CSF1R inhibition by PLX5622, confluence and morphology (Incucyte)
Type: cell-based
Conditions: PLX5622 1 μM relative to vehicle alone
Procedure: PBMCs were isolated from fresh, whole blood from human donors. CD14+ monocytes were isolated using positive magnetic selection (Miltenyi). Cells were plated in UpCell® low-adhesion plates and incubated in culture media with 50 ng/mL CSF1 for 48 hours. After 48 hours, cells were non-enzymatically harvested and plated at 25,000 cells per well in cell culture plates coated with 10 μg/mL of either Ab-3 or a matching isotype control. PLX5622 was immediately added to the cultures to 1 μM, and plates were incubated in a humidified incubator at 37 C, 5% CO2 for an additional 96 hours. During incubation, cells were monitored every two hours using an Incucyte S3® analyzer (2 fields of view per well, imaged at 10×). Confluence was measured using built in S3 software, while area and eccentricity (cell shape) were measured using the built in “Cell By Cell” analysis software. Significance was determined by Student's T-test, two-tailed in Graphpad Prism.

Structure (SMILES): COc1ncc(F)cc1CNc1ccc(Cc2c[nH]c3ncc(C)cc23)c(F)n1 [PLX5622, reference compound]
- confluence (FIG. 5): significant reduction in confluence
- cells with “high area, high eccentricity” (ramified) (FIG. 6): significant reduction in cells with “high area, high eccentricity”
